Publication PMC6663863, “The inositol hexakisphosphate kinases IP6K1 and -2 regulate human cellular phosphate homeostasis, including XPR1-mediated phosphate export” (The Journal of Biological Chemistry, 2019)

Molecular target: T1, SPX^XPR1 (recombinant His-tagged SPX domain of human XPR1) (Homo sapiens, UniProt Q9UBH6)
T1 construct: SPX domain only, N-terminal cytosolic part; residue borders not given, cloning primers encode start MKFAEHL and end PPLGAAQ-stop; His tag (modified pHisTrcA), HisTrap purified
T1 sequence (Q9UBH6 1-227): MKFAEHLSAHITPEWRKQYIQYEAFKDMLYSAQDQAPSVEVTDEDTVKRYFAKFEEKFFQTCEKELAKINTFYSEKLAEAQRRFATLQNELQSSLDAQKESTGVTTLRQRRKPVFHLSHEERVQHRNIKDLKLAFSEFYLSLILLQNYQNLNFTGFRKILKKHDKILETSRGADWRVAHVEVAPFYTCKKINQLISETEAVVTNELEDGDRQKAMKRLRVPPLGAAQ
Test: competition with [3H]IP6, PEG precipitation
Format: binding

IC50	SMILES
28.1 ± 3.9 µM	O=P(O)(O)O[C@@H]1[C@@H](OP(=O)(O)O)[C@H](OP(=O)(O)O)[C@H](O)[C@H](OP(=O)(O)O)[C@H]1OP(=O)(O)O [I(1,3,4,5,6)P5]
~9.8 µM	O=P(O)(O)O[C@H]1[C@H](OP(=O)(O)O)[C@@H](OP(=O)(O)O)[C@H](OP(=O)(O)O)[C@@H](OP(=O)(O)O)[C@H]1OP(=O)(O)O [IP6, inositol hexakisphosphate]
~4.2 µM	O=P(O)(O)O[C@H]1[C@@H](OP(=O)(O)O)[C@H](OP(=O)(O)O)[C@@H](OP(=O)(O)OP(=O)(O)O)[C@H](OP(=O)(O)O)[C@H]1OP(=O)(O)O [5-IP7, 5-diphosphoinositol pentakisphosphate]
~8.4 µM	O=P(O)(O)O[C@@H]1[C@@H](OP(=O)(O)O)[C@@H](OP(=O)(O)O)[C@@H](OP(=O)(O)OP(=O)(O)O)[C@H](OP(=O)(O)O)[C@H]1OP(=O)(O)O [1-IP7]
